According to ChEMBL document CHEMBL1132883, “Cyclopentadienyltricarbonylrheniumbenzazepines: synthesis and binding affinity” (Bioorg Med Chem Lett, 2000):
pKi: −log10 of the molar value.

Assays:
Type in all cases: tissue-based
D(1A) dopamine receptor = D(1A) dopamine receptor (Rattus norvegicus, UniProt P18901); test: Compound was evaluated for affinity towards dopamine D1-like receptor in homogenate of caudate putamen tissue from rat brain
[1] = biological target: 5-hydroxytryptamine receptor 2A (Rattus norvegicus, UniProt P14842); test: Compound was evaluated for affinity towards cerebral 5-hydroxytryptamine 2A receptor in homogenate of caudate putamen tissue from rat brain
[2] = biological target: T1, 5-hydroxytryptamine receptor 2C (Rattus norvegicus, UniProt P08909); test: Compound was evaluated for affinity towards cerebral 5-hydroxytryptamine 2C receptor in homogenate of caudate putamen tissue from rat brain
T1 sequence (P08909 whole entry): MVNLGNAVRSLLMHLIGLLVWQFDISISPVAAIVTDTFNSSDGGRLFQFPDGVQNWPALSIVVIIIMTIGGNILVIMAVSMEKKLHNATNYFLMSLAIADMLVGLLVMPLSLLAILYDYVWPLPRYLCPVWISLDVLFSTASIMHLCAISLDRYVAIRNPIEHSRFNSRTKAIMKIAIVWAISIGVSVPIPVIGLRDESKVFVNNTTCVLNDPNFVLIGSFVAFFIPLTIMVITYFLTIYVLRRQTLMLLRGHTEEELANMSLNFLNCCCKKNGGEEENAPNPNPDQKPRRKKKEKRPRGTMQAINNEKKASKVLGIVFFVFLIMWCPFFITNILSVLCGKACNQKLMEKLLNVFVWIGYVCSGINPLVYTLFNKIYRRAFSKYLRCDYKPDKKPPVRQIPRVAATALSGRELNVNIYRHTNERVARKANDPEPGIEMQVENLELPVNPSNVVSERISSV

Chain of 5-hydroxytryptamine receptor 2A (P14842 whole entry): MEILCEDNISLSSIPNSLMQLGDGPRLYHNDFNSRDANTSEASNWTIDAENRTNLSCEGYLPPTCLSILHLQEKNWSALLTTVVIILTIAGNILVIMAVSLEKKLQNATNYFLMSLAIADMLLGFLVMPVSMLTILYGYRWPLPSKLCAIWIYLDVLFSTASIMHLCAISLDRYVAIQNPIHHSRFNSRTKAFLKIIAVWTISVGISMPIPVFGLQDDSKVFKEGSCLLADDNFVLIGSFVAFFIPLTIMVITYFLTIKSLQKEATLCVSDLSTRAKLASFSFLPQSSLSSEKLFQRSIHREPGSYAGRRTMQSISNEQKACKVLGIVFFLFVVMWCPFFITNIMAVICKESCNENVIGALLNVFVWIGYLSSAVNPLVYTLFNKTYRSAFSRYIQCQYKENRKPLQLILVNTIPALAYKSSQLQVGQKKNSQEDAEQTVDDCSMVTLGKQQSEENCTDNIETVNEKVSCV
Chain of D(1A) dopamine receptor (P18901 whole entry): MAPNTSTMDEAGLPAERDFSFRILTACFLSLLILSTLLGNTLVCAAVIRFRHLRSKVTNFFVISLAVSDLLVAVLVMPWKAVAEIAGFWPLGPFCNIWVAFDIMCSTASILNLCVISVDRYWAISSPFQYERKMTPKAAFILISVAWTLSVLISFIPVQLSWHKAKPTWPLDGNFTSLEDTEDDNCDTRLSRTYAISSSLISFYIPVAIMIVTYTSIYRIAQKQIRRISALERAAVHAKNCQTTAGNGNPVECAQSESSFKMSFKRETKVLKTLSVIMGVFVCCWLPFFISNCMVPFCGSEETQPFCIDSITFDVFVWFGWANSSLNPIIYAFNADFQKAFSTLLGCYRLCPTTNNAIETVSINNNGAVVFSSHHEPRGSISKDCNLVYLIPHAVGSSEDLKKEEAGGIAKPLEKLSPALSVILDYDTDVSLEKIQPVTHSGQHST

Row | pKi (D(1A) dopamine receptor) | pKi [1] | pKi [2] | Compound
1 | 9.15 | 7.66 | 7.93 | CN1CCc2cc(Cl)c(O)cc2C(c2ccccc2Br)C1 (stereo not drawn)
2 | 9.59 | 8.07 | 8.68 | CN1CCc2cc(Cl)c(O)cc2C(c2cccc(Br)c2)C1 (stereo not drawn)
3 | – | 7.97 | 7.90 | CN1CCc2cc(Cl)c(O)cc2[C@@H](c2ccccc2)C1 [SCH-23390]
